In ChEMBL document CHEMBL1146644, “High-throughput identification of fucosyltransferase inhibitors using carbohydrate microarrays” (Bioorg Med Chem Lett, 2004):

Assays:
[1] = target: T1, 4-galactosyl-N-acetylglucosaminide 3-alpha-L-fucosyltransferase FUT6 (Homo sapiens, UniProt P51993); experiment: Compound was tested for binding affinity against Fucosyltransferase 6
T1 sequence (P51993 whole entry): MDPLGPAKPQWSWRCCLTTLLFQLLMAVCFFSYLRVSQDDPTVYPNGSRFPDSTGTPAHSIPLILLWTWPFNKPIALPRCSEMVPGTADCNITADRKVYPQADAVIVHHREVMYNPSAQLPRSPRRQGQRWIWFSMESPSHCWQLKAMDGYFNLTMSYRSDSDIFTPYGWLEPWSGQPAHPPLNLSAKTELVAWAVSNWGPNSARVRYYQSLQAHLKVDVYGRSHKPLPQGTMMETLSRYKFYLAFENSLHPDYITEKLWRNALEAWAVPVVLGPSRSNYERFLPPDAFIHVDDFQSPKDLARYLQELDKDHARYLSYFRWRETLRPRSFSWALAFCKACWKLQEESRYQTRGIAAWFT

[2] = target: T1, 4-galactosyl-N-acetylglucosaminide 3-alpha-L-fucosyltransferase FUT6; experiment: Inhibitory concentration required against Fucosyltransferase 6

Row | Compound | Ki [1] [µM] | IC50 [2] [µM]
1 | Nc1nc(O)c2ncn(C3O[C@H](COP(=O)(O)OP(=O)(O)OCc4cn(CCCCC(=O)NC(Cc5ccccc5)c5ccccc5)nn4)[C@@H](O)[C@H]3O)c2n1 (stereo not given in full) | 0.376 | 1.39
2 | Nc1nc(O)c2ncn(C3O[C@H](COP(=O)(O)OP(=O)(O)OCc4cn(CCCCC(=O)NC5=CC6C(=O)c7ccccc7C(=O)C6C=C5)nn4)[C@@H](O)[C@H]3O)c2n1 (stereo not given in full) | 0.511 | 1.89
3 | Nc1nc2c(ncn2C2O[C@H](COP(=O)(O)OP(=O)(O)OCc3cn(CCCC(=O)NC(Cc4ccccc4)c4ccccc4)nn3)[C@@H](O)[C@H]2O)c(=O)[nH]1 (stereo not given in full) | 1.07 | 3.96
4 | Nc1nc2c(ncn2C2O[C@H](COP(=O)(O)OP(=O)(O)OCc3cn(CCC(=O)NCc4cccc5ccccc45)nn3)[C@@H](O)[C@H]2O)c(=O)[nH]1 (stereo not given in full) | 0.901 | 3.34
5 | Nc1nc(O)c2ncn(C3O[C@H](COP(=O)(O)OP(=O)(O)OCc4cn(CC(=O)NC(Cc5ccccc5)c5ccccc5)nn4)[C@@H](O)[C@H]3O)c2n1 (stereo not given in full) | 0.437 | 1.62
